Assay results published in the supplement of paper PMC10307832.

Key:
Assay in all cases: relative viability (nuclei count vs DMSO), 5 days (fraction); higher = more cells survive
[1] = compound: O=C(/C=C/c1ccccc1)NC(NC(=S)Nc1cccc2cccnc12)C(Cl)(Cl)Cl [Salubrinal] + CC(=O)Nc1cccc(-n2c(=O)n(C3CC3)c(=O)c3c(Nc4ccc(I)cc4F)n(C)c(=O)c(C)c32)c1 [Trametinib] (partner 0.02 µM)
Method in brief: (§1)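 One day after seeding in 1536-well plates, lung cancer cell lines were dosed by pin tool. Dosing was either single-drug or a fixed anchor-drug dose plus five library-drug doses (not always all listed) in √10 steps. After 5 days, nuclei were stained in one fix-and-stain step and counted on 4× images, and relative viability is the nuclei count of treated wells over that of vehicle wells, given as the median of duplicate plates.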

[2] = compound: O=C(/C=C/c1ccccc1)NC(NC(=S)Nc1cccc2cccnc12)C(Cl)(Cl)Cl [Salubrinal] + COc1cc2c(Oc3ccc(NC(=O)C4(C(=O)Nc5ccc(F)cc5)CC4)cc3F)ccnc2cc1OCCCN1CCOCC1 [Foretinib] (partner 0.25 µM)
Method in brief: as §1

[3] = compound: Cc1ccc2nc(NCCN)c3ncc(C)n3c2c1 + Cc1nc(Nc2ncc(C(=O)Nc3c(C)cccc3Cl)s2)cc(N2CCN(CCO)CC2)n1 [Dasatinib] (partner 0.075 µM)
Method in brief: as §1

[4] = compound: O=C(/C=C/c1ccccc1)NC(NC(=S)Nc1cccc2cccnc12)C(Cl)(Cl)Cl [Salubrinal] + CS(=O)(=O)N1CCN(Cc2cc3nc(-c4cccc5[nH]ncc45)nc(N4CCOCC4)c3s2)CC1 [Pictilisib] (partner 1 µM)
Method in brief: as §1

Row | Cell Line | relative viability ([1]; first compound 0.08 µM) | relative viability ([1]; first compound 0.253 µM) | relative viability ([1]; first compound 0.8 µM) | relative viability ([1]; first compound 2.53 µM) | relative viability ([1]; first compound 8 µM) | relative viability ([2]; first compound 0.08 µM) | relative viability ([2]; first compound 0.253 µM) | relative viability ([2]; first compound 0.8 µM) | relative viability ([2]; first compound 2.53 µM) | relative viability ([2]; first compound 8 µM) | relative viability ([3]; first compound 0.04 µM) | relative viability ([3]; first compound 0.1265 µM) | relative viability ([3]; first compound 0.4 µM) | relative viability ([3]; first compound 1.265 µM) | relative viability ([3]; first compound 4 µM) | relative viability ([4]; first compound 0.08 µM) | relative viability ([4]; first compound 0.253 µM) | relative viability ([4]; first compound 0.8 µM) | relative viability ([4]; first compound 2.53 µM) | relative viability ([4]; first compound 8 µM)
1 | NCI-H1666 | 0.802 | 0.869 | 0.847 | 0.903 | 0.783 | 0.987 | 0.924 | 0.98 | 0.999 | 1.01 | 0.788 | 0.781 | 0.849 | 0.604 | 0.77 | 0.398 | 0.491 | 0.485 | 0.404 | 0.45
2 | LC-2-ad | 1.01 | 0.848 | 0.885 | 0.946 | 0.917 | 0.887 | 0.939 | 0.919 | 0.966 | 0.886 | 0.701 | 0.582 | 0.497 | 0.592 | 0.324 | 0.457 | 0.448 | 0.519 | 0.385 | 0.323
3 | SK-LU-1 | 0.463 | 0.468 | 0.561 | 0.445 | 0.447 | 0.947 | 0.898 | 0.97 | 0.817 | 0.775 | 0.162 | 0.202 | 0.181 | 0.166 | 0.167 | 0.678 | 0.588 | 0.698 | 0.647 | 0.519
4 | ChaGo-K-1 | 0.968 | 0.858 | 0.882 | 0.905 | 0.802 | 0.989 | 0.956 | 0.892 | 0.869 | 0.802 | 0.551 | 0.659 | 0.659 | 0.504 | 0.566 | 0.73 | 0.625 | 1.21 | 1.01 | 0.827
5 | COR-L 105 | 0.466 | 0.559 | 0.407 | 0.477 | 0.449 | 0.981 | 1.14 | 1.22 | 0.892 | 1.02 | 0.446 | 0.385 | 0.416 | 0.402 | 0.343 | 0.419 | 0.358 | 0.406 | 0.349 | 0.421
6 | NCI-H1975 | 0.281 | 0.309 | 0.36 | 0.376 | 0.312 | 1.05 | 0.86 | 1 | 0.944 | 0.923 | 0.409 | 0.387 | 0.347 | 0.359 | 0.304 | 0.259 | 0.269 | 0.338 | 0.269 | 0.278
7 | NCI-H1993 | 0.506 | 0.614 | 0.503 | – | 0.616 | 0.818 | 0.767 | 0.792 | 0.736 | 0.713 | 0.463 | 0.651 | 0.533 | 0.497 | 0.539 | 0.817 | 0.827 | 0.877 | 0.773 | 0.861
8 | RERF-LC-KJ | 0.872 | 0.867 | 0.938 | 0.795 | 0.81 | 0.959 | 0.699 | 0.941 | 0.921 | 0.706 | 0.873 | 0.698 | 0.757 | 0.748 | 0.503 | 0.664 | 0.622 | 0.549 | 0.608 | 0.52
9 | NCI-H23 | 0.437 | 0.423 | 0.479 | 0.334 | 0.375 | 1.13 | 0.999 | 1.08 | 0.894 | 0.959 | 0.934 | 0.798 | 0.73 | 0.779 | 0.728 | 0.511 | 0.583 | 0.548 | 0.442 | 0.486
10 | HCC-366 | 0.509 | – | 0.379 | 0.306 | 0.233 | 0.929 | 0.947 | 0.96 | 0.943 | 0.915 | 0.561 | 0.685 | 0.672 | 0.579 | 0.629 | 0.132 | 0.143 | 0.121 | 0.151 | 0.179
11 | EMC-BAC-2 | 0.948 | 0.878 | 0.937 | 0.906 | 0.973 | 0.975 | 1 | 1.21 | 1.03 | 0.98 | 0.339 | 0.335 | 0.345 | 0.276 | 0.307 | 0.607 | 0.454 | 0.574 | 0.583 | 0.565
12 | NCI-H2405 | 0.653 | 0.625 | 0.594 | 0.605 | 0.557 | 1.06 | 1.05 | 1.05 | 1.05 | 1.01 | 0.204 | 0.192 | 0.188 | 0.185 | 0.208 | 0.338 | 0.442 | 0.458 | 0.406 | 0.431
13 | NCI-H1944 | 0.451 | 0.448 | 0.403 | 0.399 | 0.374 | 0.871 | 0.987 | 0.885 | 0.913 | 0.904 | 0.242 | 0.216 | 0.212 | 0.269 | 0.248 | 0.349 | 0.328 | 0.362 | 0.348 | 0.307
14 | NCI-H358 | 0.145 | 0.139 | 0.135 | 0.143 | 0.136 | 0.783 | 0.597 | 0.718 | 0.71 | 0.606 | 0.177 | 0.157 | 0.182 | 0.154 | 0.22 | 0.328 | 0.455 | 0.356 | 0.309 | 0.373
15 | EPLC-272H | 0.305 | 0.298 | 0.298 | 0.314 | 0.298 | 0.853 | 0.655 | 0.65 | 0.64 | 0.519 | 0.414 | 0.411 | 0.489 | 0.406 | 0.382 | 0.293 | 0.282 | 0.355 | 0.33 | 0.24
16 | NCI-H1915 | 0.219 | – | 0.583 | 0.314 | 0.311 | 1.11 | 0.932 | 1.28 | 1.14 | 1.08 | 0.334 | 0.328 | – | 0.291 | 0.25 | 0.855 | 0.942 | 0.999 | 0.946 | 0.953
